Data reported in PMC2917805 (Journal of medicinal chemistry, 2010).

How the values were obtained:
[1] = Stability in RPMI 1640 cell culture medium; type: physicochemical
iNOS protein expression = test: Western blot of iNOS expression in LPS-stimulated RAW 264.7 cells; type: cell-based; details: 34 μM; for effect on iNOS protein expression: LPS-stimulated RAW 264.7 cells; for relative iNOS protein expression: relative to LPS-treated control, LPS 1 μg/mL, 18 h
[2] = tested on: HL-60 human acute leukemia cells; test: Cell cycle analysis, subG1 accumulation; type: cell-based
[3] = DPPH free-radical scavenging
[4] = tested on: quinone reductase 1 (QR1); test: QR activity in cell culture; type: cell-based, murine; details: Hepa 1c1c7 cells
[5] = cell culture medium, 37 °C, 24 h

| SMILES | effect on iNOS protein expression (iNOS protein expression) | QR1 CD (concentration to double the expression of QR1) [4] [µM] | relative iNOS protein expression (iNOS protein expression) | also measured |
| --- | --- | --- | --- | --- |
| Oc1ccc(/C=C/c2cc(O)cc(O)c2)cc1 [Resveratrol, 3,5,4′-trihydroxystilbene, reference compound] | moderately suppressed the expression of iNOS | – | – | remaining at 0 h ([1]; RPMI 1640 cell culture medium): 100 ± 0.3%; remaining at 24 h ([1]; RPMI 1640 cell culture medium): 46.8 ± 8.7%; degradation during 24 h [1, 5]: ~ 50%; accumulation of HL-60 cells in subG1 [2]: active |
| O=S(=O)([O-])Oc1ccc(/C=C/c2cc(OS(=O)(=O)[O-])cc(OS(=O)(=O)[O-])c2)cc1.[K+].[K+].[K+] [compound 2, Resveratrol Tripotassium 3,5,4′-Sulfate] | – | > 11.7 | – | DPPH free radical scavenging [3]: inactive |
| O=S(=O)([O-])Oc1ccc(/C=C/c2cc(O)cc(OS(=O)(=O)[O-])c2)cc1.[K+].[K+] [compound 3, Resveratrol Dipotassium 3,4′-Sulfate] | – | > 10.1 | – | – |
| O=S(=O)([O-])Oc1cc(/C=C/c2ccc(O)cc2)cc(OS(=O)(=O)[O-])c1.[K+].[K+] [compound 4, Resveratrol Tripotassium 3,5-Sulfate] | – | > 10.1 | – | – |
| O=S(=O)([O-])Oc1cc(O)cc(/C=C/c2ccc(O)cc2)c1.[K+] [compound 5, Resveratrol Potassium 3-Sulfate] | moderately suppressed the expression of iNOS | – | 0.54 | – |
| O=S(=O)([O-])Oc1ccc(/C=C/c2cc(O)cc(O)c2)cc1.[K+] [compound 7, Resveratrol Potassium 4′-Sulfate] | moderately suppressed the expression of iNOS | > 6.9 | 0.67 | remaining at 0 h ([1]; buffer): 100 ± 2.2%; remaining at 12 h ([1]; buffer): 95.1 ± 3%; remaining at 24 h ([1]; buffer): 98.8 ± 3.1%; stability [1, 5]: stable for 24 h |
